Measured values as given in ChEMBL document CHEMBL1129215, “(Dipropylamino)-tetrahydronaphthofurans: centrally acting serotonin agonists and dopamine agonists-antagonists” (Bioorg Med Chem Lett, 1997).
The source made the active and inactive calls. No cut-off for these calls is given here.

Experiments:
D(3) dopamine receptor = D(3) dopamine receptor (Homo sapiens, UniProt P35462); assay: biochemical
Description: Tested in vitro for the inhibition of [3H]U-86170 binding to Dopamine receptor D3, expressed in cloned CHO cells

D(4) dopamine receptor [1] = target: T1, D(4) dopamine receptor (Homo sapiens, UniProt P21917); assay: Tested in vitro for the inhibition of [3H]spiperone binding to Dopamine receptor D4, expressed in cloned CHO cells; assay type: cell-based
T1 sequence (P21917 whole entry): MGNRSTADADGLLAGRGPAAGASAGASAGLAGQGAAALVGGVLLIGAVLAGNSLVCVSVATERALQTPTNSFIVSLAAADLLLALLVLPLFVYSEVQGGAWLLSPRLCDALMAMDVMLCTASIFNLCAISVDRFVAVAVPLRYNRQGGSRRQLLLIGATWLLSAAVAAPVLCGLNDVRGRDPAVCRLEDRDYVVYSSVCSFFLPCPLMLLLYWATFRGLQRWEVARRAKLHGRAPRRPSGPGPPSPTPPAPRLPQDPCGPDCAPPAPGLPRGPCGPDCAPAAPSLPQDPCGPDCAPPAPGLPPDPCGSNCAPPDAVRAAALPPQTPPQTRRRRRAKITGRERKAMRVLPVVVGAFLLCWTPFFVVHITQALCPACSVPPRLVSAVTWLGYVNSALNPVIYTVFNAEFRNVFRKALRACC

D(2) dopamine receptor = D(2) dopamine receptor (Rattus norvegicus, UniProt P61169); assay: Tested in vitro for the inhibition of [3H]raclopride binding to Dopamine receptor D2 in rat striatum; assay type: tissue-based
Sequence of D(2) dopamine receptor (P61169 whole entry): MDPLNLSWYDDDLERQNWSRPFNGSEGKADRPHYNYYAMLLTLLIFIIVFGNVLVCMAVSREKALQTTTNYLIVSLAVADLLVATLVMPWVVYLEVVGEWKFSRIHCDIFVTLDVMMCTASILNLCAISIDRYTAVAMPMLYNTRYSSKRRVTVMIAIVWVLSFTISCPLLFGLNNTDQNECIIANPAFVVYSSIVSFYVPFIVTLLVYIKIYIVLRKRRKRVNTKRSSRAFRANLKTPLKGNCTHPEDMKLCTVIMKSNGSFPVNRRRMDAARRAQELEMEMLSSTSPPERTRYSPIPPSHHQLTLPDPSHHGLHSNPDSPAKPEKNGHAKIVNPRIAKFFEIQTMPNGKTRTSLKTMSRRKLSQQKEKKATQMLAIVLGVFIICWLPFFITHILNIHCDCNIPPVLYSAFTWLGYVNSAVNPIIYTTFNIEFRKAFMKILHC

Rattus norvegicus [2] = assay: The compound was evaluated in vivo for the DOPA accumulation at limbic regions at 50 umol/kg dose; assay type: functional, Limbic system
[3] = target: T2, 5-hydroxytryptamine receptor 1A (Homo sapiens, UniProt P08908); assay: Tested in vitro for the inhibition of [3H]8-OH-DPAT binding to 5-hydroxytryptamine 1A receptor, expressed in cloned CHO cells.; assay type: cell-based
T2 sequence (P08908 whole entry): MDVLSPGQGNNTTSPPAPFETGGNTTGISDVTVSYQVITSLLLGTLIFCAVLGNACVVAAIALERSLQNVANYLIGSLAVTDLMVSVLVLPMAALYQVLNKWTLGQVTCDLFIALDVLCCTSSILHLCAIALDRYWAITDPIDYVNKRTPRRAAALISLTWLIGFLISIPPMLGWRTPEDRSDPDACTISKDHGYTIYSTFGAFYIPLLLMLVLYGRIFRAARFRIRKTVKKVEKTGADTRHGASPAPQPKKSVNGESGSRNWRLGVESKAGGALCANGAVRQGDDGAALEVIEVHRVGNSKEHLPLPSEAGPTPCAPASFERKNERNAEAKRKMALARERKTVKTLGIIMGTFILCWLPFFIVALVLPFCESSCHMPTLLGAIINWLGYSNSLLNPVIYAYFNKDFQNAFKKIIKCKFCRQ

Rattus norvegicus [4] = assay: The compound was evaluated in vivo for the DOPA accumulation at corpus striatum in non-pretreated rats at 50 umol/kg dose; assay type: functional
Rattus norvegicus [5] = assay: The compound was evaluated in vivo for the locomotpr activity in non-pretreated rats at 50 uM/kg dose; assay type: functional
[6] = target: Serotonin 2 (5-HT2) receptor (Homo sapiens, UniProt P41595+P28223+P28335); assay: Tested in vitro for the inhibition of [3H]ketanserin binding to 5-hydroxytryptamine 2 receptor, expressed in cloned CHO cells.; assay type: cell-based
Rattus norvegicus [7] = assay: The compound was evaluated in vivo for the 5-HTP accumulation at hemispheres in reserpine pretreated rats at 50 umol/kg; Inactive; assay type: functional, organism-based
Rattus norvegicus [8] = assay: The compound was evaluated in vivo for the DOPA accumulation at hemispheres in reserpine pretreated rats at 50 umol/kg; Inactive; assay type: functional, organism-based
[9] = target: T3, D(4) dopamine receptor (Homo sapiens) (UniProt P21917); assay: (§1) Tested in vitro for the inhibition of [3H]spiperone binding to Dopamine receptor D4, expressed in cloned CHO cells; Inactive; assay type: cell-based
T3 sequence (whole entry): T1 sequence (P21917 whole entry)

Rattus norvegicus [10] = assay: The compound was evaluated in vivo for the 5-HTP accumulation at limbic regions at 50 umol/kg; Inactive; assay type: functional, organism-based; conditions: Limbic system
Rattus norvegicus [11] = assay: The compound was evaluated in vivo for the DOPA accumulation at limbic regions; assay type: functional; conditions: Limbic system
Rattus norvegicus [12] = assay: The compound was evaluated in vivo for the DOPA accumulation at corpus striatum; assay type: functional
Rattus norvegicus [13] = assay: The compound was evaluated in vivo for the 5-HTP accumulation at corpus striatum at 50 umol/kg; Inactive; assay type: functional, organism-based
Rattus norvegicus [14] = assay: The compound was evaluated in vivo for the locomotor activity in non-pretreated rats at 50 uM/kg dose; assay type: functional
Rattus norvegicus [15] = assay: The compound was evaluated in vivo for the 5-HTP accumulation at corpus striatum at 11 umol/kg; inactive in highest dose tested; assay type: functional, organism-based
Rattus norvegicus [16] = assay: The compound was evaluated in vivo for the 5-HTP accumulation at hemispheres in reserpine pretreated rats at 11 umol/kg; inactive in highest dose tested; assay type: functional, organism-based
Rattus norvegicus [17] = assay: The compound was evaluated in vivo for the DOPA accumulation at hemispheres in reserpine pretreated rats at 11 umol/kg; inactive in highest dose tested; assay type: functional, organism-based
Rattus norvegicus [18] = assay: The compound was evaluated in vivo for the 5-HTP accumulation at limbic regions at 11 umol/kg; inactive in highest dose tested; assay type: functional, organism-based; conditions: Limbic system
Rattus norvegicus [19] = assay: The compound was evaluated in vivo for the 5-HTP accumulation at hemispheres in reserpine pretreated rats; assay type: functional
Rattus norvegicus [20] = assay: The compound was evaluated in vivo for the 5-HTP accumulation at limbic regions; assay type: functional; conditions: Limbic system
Rattus norvegicus [21] = assay: The compound was evaluated in vivo for the 5-HTP accumulation at corpus striatum; assay type: functional
Rattus norvegicus [22] = assay: The compound was evaluated in vivo for the DOPA accumulation at hemispheres in reserpine pretreated rats at 50 umol/kg; inactive in the highest dose tested; assay type: functional, organism-based
Rattus norvegicus [23] = assay: The compound was evaluated in vivo for the DOPA accumulation at corpus striatum at 50 umol/kg; Partial effects in the highest dose tested; assay type: functional, organism-based
Rattus norvegicus [24] = assay: The compound was evaluated in vivo for the DOPA accumulation at limbic regions at 50 umol/kg; Partial effects in the highest dose tested; assay type: functional, organism-based; conditions: Limbic system
D(4) dopamine receptor [25] = target: T1, D(4) dopamine receptor; assay: as §1; assay type: cell-based
Rattus norvegicus [26] = assay: The compound was evaluated in vivo for the DOPA accumulation at hemispheres in reserpine pretreated rats; partial effect at highest dose of 45 umol/kg; assay type: functional, organism-based
Rattus norvegicus [27] = assay: The compound was evaluated in vivo for the DOPA accumulation at corpus striatum; partial effect at highest dose of 45 umol/kg; assay type: functional, organism-based
Rattus norvegicus [28] = assay: The compound was evaluated in vivo for the DOPA accumulation at limbic regions; partial effect at highest dose of 45 umol/kg; assay type: functional, organism-based; conditions: Limbic system
Rattus norvegicus [29] = assay: The compound was evaluated in vivo for the 5-HTP accumulation at limbic regions at 13.5 umol/kg; inactive in highest dose tested; assay type: functional, organism-based; conditions: Limbic system
Rattus norvegicus [30] = assay: The compound was evaluated in vivo for the 5-HTP accumulation at hemispheres in reserpine pretreated rats at 13.5 umol/kg; inactive in highest dose tested; assay type: functional, organism-based
Rattus norvegicus [31] = assay: The compound was evaluated in vivo for the DOPA accumulation at hemispheres in reserpine pretreated rats at 13.5 umol/kg; inactive in highest dose tested; assay type: functional, organism-based
Rattus norvegicus [32] = assay: The compound was evaluated in vivo for the 5-HTP accumulation at corpus striatum at 13.5 umol/kg; inactive in highest dose tested; assay type: functional, organism-based
Rattus norvegicus [33] = assay: The compound was evaluated in vivo for the DOPA accumulation at hemispheres in reserpine pretreated rats at 12.5 umol/kg; Inactive; assay type: functional, organism-based
Rattus norvegicus [34] = assay: The compound was evaluated in vivo for the DOPA accumulation at limbic regions at 12.5 umol/kg; Inactive; assay type: functional, organism-based; conditions: Limbic system
Rattus norvegicus [35] = assay: The compound was evaluated in vivo for the DOPA accumulation at corpus striatum at 12.5 umol/kg; Partial effects in the highest dose tested; assay type: functional, organism-based

Sequence of D(3) dopamine receptor (P35462 whole entry): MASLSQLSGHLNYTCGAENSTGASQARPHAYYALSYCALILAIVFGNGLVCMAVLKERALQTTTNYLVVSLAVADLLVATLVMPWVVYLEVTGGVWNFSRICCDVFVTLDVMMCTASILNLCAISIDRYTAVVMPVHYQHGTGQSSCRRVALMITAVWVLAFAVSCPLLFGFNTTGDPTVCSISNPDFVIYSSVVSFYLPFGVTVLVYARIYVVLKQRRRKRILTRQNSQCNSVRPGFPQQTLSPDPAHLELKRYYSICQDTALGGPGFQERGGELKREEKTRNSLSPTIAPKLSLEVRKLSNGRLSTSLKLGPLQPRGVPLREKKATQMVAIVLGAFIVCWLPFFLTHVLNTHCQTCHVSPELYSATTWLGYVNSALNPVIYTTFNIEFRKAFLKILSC

| SMILES | Ki (D(3) dopamine receptor) | Ki (D(4) dopamine receptor [1]) | Ki (D(2) dopamine receptor) | Ki [3] | Ki [6] | ED50 (Rattus norvegicus [11]) | ED50 (Rattus norvegicus [12]) | ED50 (Rattus norvegicus [19]) | ED50 (Rattus norvegicus [20]) | ED50 (Rattus norvegicus [21]) | other results |
| --- | --- | --- | --- | --- | --- | --- | --- | --- | --- | --- | --- |
| CCCN(CCC)[C@@H]1CCc2c(ccc3ccoc23)[C@@H]1C | 27 nM | 55 nM | 46 nM | 120 nM | 70 nM |  |  |  |  |  | Saline control (Rattus norvegicus [2]): 121%; Saline control (Rattus norvegicus [4]): 161%; Saline control (Rattus norvegicus [5]): 107% |
| CCCN(CCC)C1CCc2c(ccc3ccoc23)C1 (centres undefined) | 56 nM |  | 18 nM | 210 nM |  | 0.74 µmol/kg | 0.98 µmol/kg |  |  |  | ED50 (Rattus norvegicus [7]): inactive; ED50 (Rattus norvegicus [8]): inactive; ED50 [9]: inactive; ED50 (Rattus norvegicus [10]): inactive; ED50 (Rattus norvegicus [13]): inactive |
| CCCN(CCC)[C@@H]1CCc2c(OC)cccc2[C@@H]1C |  |  | 15 nM |  |  |  |  |  |  |  | Saline control (Rattus norvegicus [14]): 70%; Saline control (Rattus norvegicus [2]): 245%; Saline control (Rattus norvegicus [4]): 370% |
| CCCN(CCC)C1CCc2ccc(O)cc2C1 (centres undefined) |  | 148 nM |  | 47 nM |  | 0.027 µmol/kg | 0.03 µmol/kg |  |  |  | ED50 (Rattus norvegicus [15]): inactive; ED50 (Rattus norvegicus [16]): inactive; ED50 (Rattus norvegicus [17]): inactive; ED50 (Rattus norvegicus [18]): inactive |
| CCCN(CCC)C1CCc2ccc3ccoc3c2C1 (centres undefined) | 16.2 nM |  | 32 nM | 6.1 nM |  |  |  | 2.26 µmol/kg | 3.24 µmol/kg | 3.18 µmol/kg | Activity (Rattus norvegicus [22]): inactive; Activity (Rattus norvegicus [23]): Weak activity; Activity (Rattus norvegicus [24]): Weak activity; Ki (D(4) dopamine receptor [25]): Not Active |
| CCCN(CCC)C1CCc2cccc(O)c2C1 (centres undefined) [8-OH-DPAT] |  | > 1520 nM |  |  |  |  |  | 0.052 µmol/kg | 0.052 µmol/kg | 0.063 µmol/kg | Activity (Rattus norvegicus [26]): Weak activity; Activity (Rattus norvegicus [27]): Weak activity; Activity (Rattus norvegicus [28]): Weak activity |
| CCCN(CCC)C1CCc2c(O)cccc2C1 (centres undefined) [5-OH-DPAT] |  |  |  | 344 nM |  | 0.011 µmol/kg | 0.009 µmol/kg |  |  |  | ED50 (Rattus norvegicus [29]): inactive; ED50 (Rattus norvegicus [30]): inactive; ED50 (Rattus norvegicus [31]): inactive; ED50 (Rattus norvegicus [32]): inactive |
| CCCN1CC[C@H]2c3c(ccc4ccoc34)CC[C@H]21 | 323 nM | > 4070 nM | 150 nM | 3.9 nM | 146 nM |  |  | 0.66 µmol/kg | 0.41 µmol/kg | 0.4 µmol/kg | ED50 (Rattus norvegicus [33]): inactive; ED50 (Rattus norvegicus [34]): inactive; Activity (Rattus norvegicus [35]): Weak activity |
| CCCN1CC[C@H]2c3c(O)cccc3CC[C@H]21 | > 4760 nM | > 4070 nM | 769 nM |  | 1637 nM |  |  |  |  |  |  |
| CCCN(CCC)C1CCc2ccc3occc3c2C1 (centres undefined) | 45 nM |  | 64 nM | 7.8 nM |  | 4.47 µmol/kg | 13.1 µmol/kg | 6.08 µmol/kg | 4.56 µmol/kg | 2.12 µmol/kg | ED50 (Rattus norvegicus [8]): inactive; ED50 [9]: inactive |
